From patent US10988456B2, “O-aminoheteroaryl alkynyl-containing compound, preparation method therefor, and use thereof” (SHANGHAI INSTITUTE OF MATERIA MEDICA, CHINESE ACADEMY OF …, priority 2017, dated 2021)

Columns and labels:
[1] = target: FGFR1 (Homo sapiens, UniProt P11362); test: Inhibition of receptor tyrosine kinase activity at molecular level (ELISA, Poly(Glu,Tyr)4:1 substrate phosphorylation); assay type: biochemical; conditions: 10 nM compound; average of two independent experiments
[2] = target: KDR (Homo sapiens, UniProt P35968); test: as above; assay type: biochemical; conditions: 10 nM compound; average of two independent experiments
Sequence of KDR (P35968 20-1356): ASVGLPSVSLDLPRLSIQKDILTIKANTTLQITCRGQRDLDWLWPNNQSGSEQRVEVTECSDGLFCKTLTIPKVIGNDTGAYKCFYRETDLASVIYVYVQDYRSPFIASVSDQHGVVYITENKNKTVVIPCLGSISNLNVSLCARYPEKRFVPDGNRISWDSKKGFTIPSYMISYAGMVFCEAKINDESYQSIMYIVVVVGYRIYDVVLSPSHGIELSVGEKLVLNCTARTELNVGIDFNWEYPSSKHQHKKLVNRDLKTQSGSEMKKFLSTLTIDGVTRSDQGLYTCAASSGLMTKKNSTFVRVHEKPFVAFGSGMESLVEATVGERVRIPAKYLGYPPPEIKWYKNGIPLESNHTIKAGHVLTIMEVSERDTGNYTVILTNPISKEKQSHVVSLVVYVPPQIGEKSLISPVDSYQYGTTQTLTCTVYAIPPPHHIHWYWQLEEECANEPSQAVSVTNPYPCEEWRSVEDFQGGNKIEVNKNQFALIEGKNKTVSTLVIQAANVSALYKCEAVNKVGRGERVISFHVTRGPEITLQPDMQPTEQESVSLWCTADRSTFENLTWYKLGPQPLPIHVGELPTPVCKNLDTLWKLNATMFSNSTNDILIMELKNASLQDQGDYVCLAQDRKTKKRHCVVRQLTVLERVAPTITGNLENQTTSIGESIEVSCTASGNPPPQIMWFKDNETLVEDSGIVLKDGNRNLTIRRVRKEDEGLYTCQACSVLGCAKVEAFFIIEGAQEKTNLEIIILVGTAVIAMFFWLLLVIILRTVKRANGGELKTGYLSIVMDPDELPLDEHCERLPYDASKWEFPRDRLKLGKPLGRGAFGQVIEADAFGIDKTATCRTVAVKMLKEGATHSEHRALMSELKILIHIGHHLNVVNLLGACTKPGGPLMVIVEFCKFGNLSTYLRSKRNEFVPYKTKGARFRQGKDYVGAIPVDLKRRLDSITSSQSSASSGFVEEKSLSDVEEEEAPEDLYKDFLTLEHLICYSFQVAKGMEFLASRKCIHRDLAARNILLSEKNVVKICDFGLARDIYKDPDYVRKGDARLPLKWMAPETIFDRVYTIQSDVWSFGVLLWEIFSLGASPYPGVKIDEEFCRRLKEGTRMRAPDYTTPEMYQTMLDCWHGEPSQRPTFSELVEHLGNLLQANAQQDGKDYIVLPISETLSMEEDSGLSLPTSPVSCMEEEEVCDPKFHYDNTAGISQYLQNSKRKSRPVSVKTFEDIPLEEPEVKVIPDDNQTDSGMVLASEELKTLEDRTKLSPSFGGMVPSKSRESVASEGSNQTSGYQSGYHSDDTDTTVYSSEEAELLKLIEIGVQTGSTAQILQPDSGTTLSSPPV

[3] = target: RET (Homo sapiens, UniProt P07949); test: as above; assay type: biochemical; conditions: for 10 nM inhibition ratio RET: 10 nM compound, average of two independent experiments
Sequence of RET (P07949 29-1114): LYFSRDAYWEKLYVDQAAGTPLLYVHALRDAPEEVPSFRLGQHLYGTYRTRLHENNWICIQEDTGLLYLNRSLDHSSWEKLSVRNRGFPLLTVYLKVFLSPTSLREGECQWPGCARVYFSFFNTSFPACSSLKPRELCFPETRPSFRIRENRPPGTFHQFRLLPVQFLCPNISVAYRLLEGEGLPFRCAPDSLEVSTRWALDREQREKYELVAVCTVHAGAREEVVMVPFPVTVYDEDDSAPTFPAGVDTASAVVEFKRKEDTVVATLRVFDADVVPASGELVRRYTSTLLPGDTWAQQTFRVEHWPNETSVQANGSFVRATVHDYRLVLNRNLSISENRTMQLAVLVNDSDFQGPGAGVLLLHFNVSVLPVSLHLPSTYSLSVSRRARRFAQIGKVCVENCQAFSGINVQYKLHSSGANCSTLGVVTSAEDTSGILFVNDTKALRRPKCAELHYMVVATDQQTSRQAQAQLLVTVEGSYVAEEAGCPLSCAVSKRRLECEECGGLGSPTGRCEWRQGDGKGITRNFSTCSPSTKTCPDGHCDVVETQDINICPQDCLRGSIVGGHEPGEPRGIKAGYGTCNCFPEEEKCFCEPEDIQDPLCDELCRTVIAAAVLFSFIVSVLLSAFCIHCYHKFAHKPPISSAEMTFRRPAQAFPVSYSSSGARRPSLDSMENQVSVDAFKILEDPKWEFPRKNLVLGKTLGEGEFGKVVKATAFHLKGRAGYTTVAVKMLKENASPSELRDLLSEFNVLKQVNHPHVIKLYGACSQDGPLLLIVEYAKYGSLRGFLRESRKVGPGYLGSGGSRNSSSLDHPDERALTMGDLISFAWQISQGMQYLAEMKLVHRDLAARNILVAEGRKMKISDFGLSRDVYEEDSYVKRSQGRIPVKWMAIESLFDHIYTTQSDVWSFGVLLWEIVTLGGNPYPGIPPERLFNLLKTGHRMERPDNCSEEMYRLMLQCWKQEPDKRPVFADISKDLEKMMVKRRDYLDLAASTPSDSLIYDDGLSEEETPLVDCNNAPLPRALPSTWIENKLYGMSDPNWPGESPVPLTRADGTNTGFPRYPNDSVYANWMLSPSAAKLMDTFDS
Summary of the method: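 Poly(Glu,Tyr)4:1-coated plates (20 μg/mL) were incubated with recombinant kinase, compound and 5 μM ATP (final) in HEPES pH 7.4 buffer with MgCl2/MnCl2/Na3VO4/DTT for 1 h at 37 °C. Phosphotyrosine was detected with PY99 and HRP anti-mouse IgG plus OPD at 490 nm. IC50 came from four-parameter regression.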

[4] = test system: RET signaling pathway in TT and BaF3/CCDC6-RET cells; test: Western blotting of RET signaling pathway activation in cells; assay type: cell-based; conditions: compounds 2 hours; P-RET, P-AKT, P-ErK
Experimental: Detecting the Effect of Compounds on the Activation of RET Signaling Pathway in TT and BaF3/CCDC6-RET Cells by Western Blotting
The cells were seeded into a 12-well plate (250,000/well). After incubation for 18-24 hours, the compounds were added to react for 2 hours, and then the cells were collected and firstly washed once with cold PBS (containing 1 mmol sodium vanadate); then 1×SDS gel loading buffer (50 mmol Tris-HCl (pH 6.8), 100 mmol DTT, 2% SDS, 10% glycerol, 1 mmol sodium vanadate, 0.1% bromophenol blue) was added to lyse cells. The cell lysate was heated in a boiling water bath for 10 minutes, and then centrifuged at 12,000 rpm for 10 minutes at 4° C.
The supernatant was taken for SDS-PAGE electrophoresis (Mini-PROTEAN 3 Cell, Bio-Rad, Hercules, Calif., USA). After electrophoresis, the proteins were transferred to a nitrocellulose membrane using a semi-dry electrotransfer system (Amersham Life Sciences, Arlington Heights, Ill., USA). The nitrocellulose membrane was placed in a blocking solution (5% skim milk powder diluted in TBS containing 1 mmol sodium vanadate) for 2 hours at room temperature, and then the membrane was placed and reacted with a primary antibody at 4° C. overnight. […] The membrane was placed in a secondary antibody solution and reacted for 1-2 hours at room temperature. After the membrane was washed three times as above, the membrane was stained using ECL (Picece, Rockford, Ill.) reagent was used for staining and then developed.

[5] = Pharmacokinetic experiment in rat (IV and PO, plasma LC-MS/MS)
Experimental: Ponatinib (AP24534) was administered intravenously (IV) and orally (PO) to SD rats. Blood samples were taken at different time points. LC-MS/MS was used to determine the concentration of compound in the plasma of rats after administration of the test compound, and the relevant pharmacokinetic parameters were calculated to examine oral bioavailability and pharmacokinetic properties of the compound in rats.
Compound HuFGFR267 was administered intravenously and orally to SD rats. Blood samples were taken at different time points. LC-MS/MS was used to determine the concentration of compound in the plasma of rats after administration of the test compound, and the relevant pharmacokinetic parameters were calculated to examine oral bioavailability and pharmacokinetic properties of the compound in rats.

[6] = test system: human gastric cancer SNU-16 xenografts; test: Growth of subcutaneous xenografts of human gastric cancer SNU-16 in nude mice (comparative compounds study); conditions: for Relative tumor volume RTV (mean ± SD): SNU-16, 30 mg/kg orally once a day; for Weight (g, mean ± SD): SNU-16 tumor-bearing mice, 30 mg/kg orally once a day
[7] = target: T1, Ret (V804M) (Homo sapiens, UniProt P07949, V804M); test: Inhibition of RET-related mutant enzyme activity (ELISA); assay type: biochemical; conditions: measured twice, Mean ± SD
T1 construct: purchased
T1 sequence (P07949 29-1114 V804M): as the sequence (P07949 29-1114) above, with V776M counted along it
Experimental: Enzyme reaction substrate Poly(Glu, Tyr)4:1 was diluted with potassium-free PBS (10 mM sodium phosphate buffer, 150 mM NaCl, pH 7.2-7.4) to 20 μg/mL. The enzyme label plate was coated with 125 μL/well. The reaction was conducted under 37° C. for 12-16 hours. After the liquid was removed from the wells, the plate was washed three times with 200 μL/well of T-PBS (PBS containing 0.1% Tween-20), each for 5 minutes. The enzyme plate was dried in 37° C. dryer for 1-2 hours.
50 μL ATP solution diluted with buffer (50 mM HEPES pH 7.4, 50 mM MgCl2, 0.5 mM MnCl2, 0.2 mM Na3VO4, 1 mM DTT) to a final concentration of 5 μM was added into each well. The compound was diluted with DMSO to a suitable concentration (1 μL/well) or the well contained the corresponding concentration of DMSO (negative control well) Then various kinase recombinant proteins diluted with 49 μL of reaction buffer was added to initiate the reaction. Each experiment required duplicate enzyme-free control well. The reaction was carried out for 1 hour on a 37° C. Shaker (100 rpm). […] The reaction was quenched with 2M H2SO4 (50 μL/well), and read at 490 nm using a tunable microplate reader SPECTRA MAX 190.
The inhibition ratio of the sample was determined by the following formula: […]
The IC50 values were obtained via four-parameter regression analysis using the software supplied with the microplate reader. […]

Sequence of FGFR1 (P11362 22-822): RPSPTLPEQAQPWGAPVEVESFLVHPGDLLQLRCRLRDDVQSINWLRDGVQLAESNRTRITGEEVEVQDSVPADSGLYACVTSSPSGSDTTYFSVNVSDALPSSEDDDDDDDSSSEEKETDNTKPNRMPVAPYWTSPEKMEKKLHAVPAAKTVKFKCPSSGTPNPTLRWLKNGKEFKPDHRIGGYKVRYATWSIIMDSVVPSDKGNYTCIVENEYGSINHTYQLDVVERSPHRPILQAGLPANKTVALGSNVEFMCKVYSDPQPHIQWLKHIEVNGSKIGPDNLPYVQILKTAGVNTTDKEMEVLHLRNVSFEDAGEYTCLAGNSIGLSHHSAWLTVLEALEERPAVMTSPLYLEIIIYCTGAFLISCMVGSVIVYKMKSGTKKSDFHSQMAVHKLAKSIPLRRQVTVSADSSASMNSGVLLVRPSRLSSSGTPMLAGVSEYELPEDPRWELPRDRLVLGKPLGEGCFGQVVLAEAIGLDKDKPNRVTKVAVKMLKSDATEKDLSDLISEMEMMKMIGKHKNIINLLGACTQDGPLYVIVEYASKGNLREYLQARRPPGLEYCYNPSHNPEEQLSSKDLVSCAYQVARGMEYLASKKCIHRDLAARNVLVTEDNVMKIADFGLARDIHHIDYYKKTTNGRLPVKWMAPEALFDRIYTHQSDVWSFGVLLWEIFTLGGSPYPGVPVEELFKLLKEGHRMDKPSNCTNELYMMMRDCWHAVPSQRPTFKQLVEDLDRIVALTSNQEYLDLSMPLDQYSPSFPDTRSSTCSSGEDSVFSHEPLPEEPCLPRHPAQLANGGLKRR

SMILES: Cc1ccc(C(=O)Nc2ccc(CN3CCN(C)CC3)c(C(F)(F)F)c2)cc1C#Cc1cnc2cccnn12 [Ponatinib]
- 10 nM inhibition ratio FGFR1 [1]: 79.5
- 10 nM inhibition ratio KDR [2]: 85.3
- 10 nM inhibition ratio RET [3]: 87.5
- inhibition of RET phosphorylation and downstream signaling pathway (Western blot, FIG. 1) [4]: inhibited RET phosphorylation and the downstream signaling pathway
- F ([5]; SD rats, PO (10 mg/kg) vs IV (2 mg/kg)): 24.4%
- AUC0-t ([5]; SD, rat, plasma, iv, 2 mg/kg): 1410 ng·h/mL
- Vd ([5]; SD, rat, plasma, iv, 2 mg/kg): 7.78 L/kg
- clearance ([5]; SD, rat, plasma, iv, 2 mg/kg): 22.2 mL/min/kg
- half-life ([5]; SD, rat, plasma, iv, 2 mg/kg): 4.24 h
- AUC0-t ([5]; SD, rat, plasma, po, 10 mg/kg): 1600 ng·h/mL
- Cmax ([5]; SD, rat, plasma, po, 10 mg/kg): 241 ng/mL
- Tmax ([5]; SD, rat, plasma, po, 10 mg/kg): 2.33 h
- half-life ([5]; SD, rat, plasma, po, 10 mg/kg): 8.29 h
- relative tumor proliferation rate T/C ([6]; SNU-16, 30 mg/kg orally once a day for 21 days, day 21): 36.20%
- Relative tumor volume RTV (mean ± SD) ([6]; d0): 1.00 ± 0.00
- Relative tumor volume RTV (mean ± SD) ([6]; d3): 1.46 ± 0.30
- Relative tumor volume RTV (mean ± SD) ([6]; d7): 1.56 ± 0.52
- Relative tumor volume RTV (mean ± SD) ([6]; d10): 1.56 ± 0.22
- Relative tumor volume RTV (mean ± SD) ([6]; d14): 2.00 ± 0.38
- Relative tumor volume RTV (mean ± SD) ([6]; d17): 1.94 ± 0.47
- Relative tumor volume RTV (mean ± SD) ([6]; d21): 2.10 ± 0.34
- Weight (g, mean ± SD) ([6]; d0): 23.6 ± 2.5 g
- Weight (g, mean ± SD) ([6]; d3): 24.2 ± 2.9 g
- Weight (g, mean ± SD) ([6]; d7): 23.5 ± 2.8 g
- Weight (g, mean ± SD) ([6]; d10): 23.7 ± 2.9 g
- Weight (g, mean ± SD) ([6]; d14): 24.5 ± 2.8 g
- Weight (g, mean ± SD) ([6]; d17): 24.1 ± 2.6 g
- Weight (g, mean ± SD) ([6]; d21): 24.6 ± 3.1 g

SMILES: CN1CCN(Cc2ccc(NC(=O)c3cccc(C#Cc4cccnc4N)c3)cc2C(F)(F)F)CC1 [Example 6]
- 10 nM inhibition ratio FGFR1 [1]: 74.7
- 10 nM inhibition ratio KDR [2]: 35.2
- 10 nM inhibition ratio RET [3]: 57.7
- IC50 ([3]; measured twice, Mean ± SD): 6 ± 0.4 nM
- IC50 [7]: 17.9 ± 5.4 nM
- inhibition of RET phosphorylation and downstream signaling pathway (Western blot, FIG. 1) [4]: inhibited RET phosphorylation and the downstream signaling pathway
